Key:
[1] = system: Akt phosphorylated at Thr308 in PC-3 cells; test: Cellular assay: phosphorylation of Akt (Thr308) in PC-3 cells, MSD ELISA; type: cell-based; details: Homo sapiens, 1 h, 60 min incubation with compound, read-out: IC50 pAkt_Thr308
Method: (§1) Cellular activity of PI3Kβ inhibitors was determined by quantifying the phosphorylation of Akt in PC-3 cells. Akt phosphorylated at Ser473 and Thr308 were measured using an enzyme-linked immunosorbent assay (ELISA; Meso Scale Discovery (MSD). Gaithersburg, Md.) and specific primary antibodies from MSD.
(§2) On day 1, PC3 cells (ATCC […]) were seeded into PerkinElmer MW96 plates at 25.000 cells per well, in 75 μl complete culture medium (DMEM (Dulbecco's Modified Eagle's Medium) high glucose. AQmedia™, D0819, Sigma-Aldrich) containing 10% heat inactivated FCS (Fetal Bovine Serum) and incubated at 37° C., 5% CO2 during 24 hours. On day 2, compound or DMSO (dimethyl sulfoxide) (0.3%) was added and cells were further incubated for 60 min at 37° C., 5% CO2 in a total volume of 100 μl of medium.
(§3) The phosphoprotein assay was executed according to vendor instructions in the Phospho-Akt (Ser473) Assay Whole Cell Lysate Kit (MSD #K15100D-3) and the Phospho-Akt (Thr308) Assay Whole Cell Lysate Kit (MSD #K151DYD-3) using the lysis, blocking and wash buffer provided.
(§4) Briefly, at the end of the cell treatment period, media were removed by aspiration and adherent cells were lysed in 50 μl ice-cold lysis buffer. MSD plates are supplied pre-coated with capture antibodies for Phospho-Akt (Ser473 and Thr308). After blocking, lysates from tissue culture plates were added and plates were washed. Then, a solution containing the detection antibody (anti-total Akt conjugated with an electrochemiluminescent compound-MSD Sulfo-tag label) was added. The signals were detected using an MSD SECTOR Imager 6000 and are proportional to the phospho-Akt titres.
(§5) Data were processed. The percentage of inhibition was plotted against the log concentration of test compounds, and the sigmoidal log concentration-effect curve of best fit was calculated by nonlinear regression analysis. From these concentration-response curves, the IC50 values were calculated. Five concentrations were used for curve fitting.

[2] = system: Akt phosphorylated at Ser473 in PC-3 cells; test: Cellular assay: phosphorylation of Akt (Ser473) in PC-3 cells, MSD ELISA; type: cell-based; details: Homo sapiens, 1 h, 60 min incubation with compound, read-out: IC50 pAkt_S473
Method: as §1, §2, §3, §4, §5

PIK3Cβ_h = target: T1, PIK3Cβ_h (Homo sapiens, UniProt P42338); test: Enzyme binding assay (KINOMEscan); details: DiscoveRx
T1 construct: purchased DiscoveRx Corporation, San Diego (KINOMEscan service)
T1 sequence (P42338 whole entry): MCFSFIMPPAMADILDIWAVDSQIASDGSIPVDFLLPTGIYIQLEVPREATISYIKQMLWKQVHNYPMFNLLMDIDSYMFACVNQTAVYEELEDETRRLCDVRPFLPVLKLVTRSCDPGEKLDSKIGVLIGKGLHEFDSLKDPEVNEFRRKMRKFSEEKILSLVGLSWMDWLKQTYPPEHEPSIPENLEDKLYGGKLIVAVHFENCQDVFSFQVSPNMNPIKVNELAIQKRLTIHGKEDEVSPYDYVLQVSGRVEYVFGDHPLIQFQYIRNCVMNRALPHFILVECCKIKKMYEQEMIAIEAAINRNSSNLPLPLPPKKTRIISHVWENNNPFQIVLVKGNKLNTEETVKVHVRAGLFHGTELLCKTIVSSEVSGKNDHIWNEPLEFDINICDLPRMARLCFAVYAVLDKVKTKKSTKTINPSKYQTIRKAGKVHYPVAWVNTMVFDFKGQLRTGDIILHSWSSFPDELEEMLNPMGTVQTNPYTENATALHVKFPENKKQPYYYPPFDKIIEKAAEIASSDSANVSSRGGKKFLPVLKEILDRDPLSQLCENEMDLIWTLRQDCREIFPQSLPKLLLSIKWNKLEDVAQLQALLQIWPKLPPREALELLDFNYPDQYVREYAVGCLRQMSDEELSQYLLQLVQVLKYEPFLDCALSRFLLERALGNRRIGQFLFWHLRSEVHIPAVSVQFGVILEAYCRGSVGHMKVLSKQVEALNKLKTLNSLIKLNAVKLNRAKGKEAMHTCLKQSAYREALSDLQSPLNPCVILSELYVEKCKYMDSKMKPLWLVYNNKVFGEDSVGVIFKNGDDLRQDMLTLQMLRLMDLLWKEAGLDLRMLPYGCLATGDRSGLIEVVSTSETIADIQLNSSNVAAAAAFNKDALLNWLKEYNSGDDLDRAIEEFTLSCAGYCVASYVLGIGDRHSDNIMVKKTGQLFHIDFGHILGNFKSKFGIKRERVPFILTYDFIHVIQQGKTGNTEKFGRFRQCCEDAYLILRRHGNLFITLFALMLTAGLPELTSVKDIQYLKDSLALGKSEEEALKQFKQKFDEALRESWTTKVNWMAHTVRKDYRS
Method: (§6) Enzyme Binding Assays (KINOMEscan®)
(§7) Kinase enzyme binding affinities of compounds disclosed herein were determined using the KINOMEscan technology performed by DiscoveRx Corporation, San Diego, Calif., USA (www.kinomescan.com). Table A reports the obtained Kd values (nM), with the Kd being the inhibitor binding constant: […]

PIK3Cδ_h = target: T2, PIK3Cδ_h (Homo sapiens, UniProt O00329); test: Enzyme binding assay (KINOMEscan); details: DiscoveRx
T2 construct: purchased DiscoveRx Corporation, San Diego (KINOMEscan service)
T2 sequence (O00329 1-1044): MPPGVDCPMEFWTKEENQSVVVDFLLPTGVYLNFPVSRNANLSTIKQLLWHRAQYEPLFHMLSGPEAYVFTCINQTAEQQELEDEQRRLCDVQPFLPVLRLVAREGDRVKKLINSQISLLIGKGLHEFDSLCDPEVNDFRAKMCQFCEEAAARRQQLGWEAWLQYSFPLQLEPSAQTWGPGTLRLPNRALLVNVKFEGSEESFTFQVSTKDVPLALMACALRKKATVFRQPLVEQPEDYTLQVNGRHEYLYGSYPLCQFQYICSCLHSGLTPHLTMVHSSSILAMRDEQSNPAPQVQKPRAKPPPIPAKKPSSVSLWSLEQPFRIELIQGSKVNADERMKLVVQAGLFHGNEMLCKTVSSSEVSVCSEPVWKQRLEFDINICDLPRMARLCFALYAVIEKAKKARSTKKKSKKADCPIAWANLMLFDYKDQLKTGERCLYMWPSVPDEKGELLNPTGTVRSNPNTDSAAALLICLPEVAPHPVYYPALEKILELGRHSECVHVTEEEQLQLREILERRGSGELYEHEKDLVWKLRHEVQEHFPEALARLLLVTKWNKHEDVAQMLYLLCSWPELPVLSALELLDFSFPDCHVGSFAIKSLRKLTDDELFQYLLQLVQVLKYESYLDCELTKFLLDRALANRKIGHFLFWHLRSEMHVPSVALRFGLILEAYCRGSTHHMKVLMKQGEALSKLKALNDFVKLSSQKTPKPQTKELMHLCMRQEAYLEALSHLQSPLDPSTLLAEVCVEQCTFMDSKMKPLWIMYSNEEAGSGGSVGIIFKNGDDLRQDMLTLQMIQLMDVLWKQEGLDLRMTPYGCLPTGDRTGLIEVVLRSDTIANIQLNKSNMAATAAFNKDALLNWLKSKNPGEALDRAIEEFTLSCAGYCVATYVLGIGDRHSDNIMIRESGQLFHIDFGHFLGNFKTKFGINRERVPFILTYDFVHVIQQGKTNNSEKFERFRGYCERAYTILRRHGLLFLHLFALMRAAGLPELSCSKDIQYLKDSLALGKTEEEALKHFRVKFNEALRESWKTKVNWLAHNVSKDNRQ
Method: as §6, §7

MTOR_h = target: T3, MTOR_h (Homo sapiens, UniProt P42345); test: Enzyme binding assay (KINOMEscan); details: DiscoveRx
T3 construct: purchased DiscoveRx Corporation, San Diego (KINOMEscan service)
Method: as §6, §7

PIK3Cα_h = target: T4, PIK3Cα_h (Homo sapiens, UniProt P42336); test: Enzyme binding assay (KINOMEscan); details: DiscoveRx
T4 construct: purchased DiscoveRx Corporation, San Diego (KINOMEscan service)
T4 sequence (P42336 whole entry): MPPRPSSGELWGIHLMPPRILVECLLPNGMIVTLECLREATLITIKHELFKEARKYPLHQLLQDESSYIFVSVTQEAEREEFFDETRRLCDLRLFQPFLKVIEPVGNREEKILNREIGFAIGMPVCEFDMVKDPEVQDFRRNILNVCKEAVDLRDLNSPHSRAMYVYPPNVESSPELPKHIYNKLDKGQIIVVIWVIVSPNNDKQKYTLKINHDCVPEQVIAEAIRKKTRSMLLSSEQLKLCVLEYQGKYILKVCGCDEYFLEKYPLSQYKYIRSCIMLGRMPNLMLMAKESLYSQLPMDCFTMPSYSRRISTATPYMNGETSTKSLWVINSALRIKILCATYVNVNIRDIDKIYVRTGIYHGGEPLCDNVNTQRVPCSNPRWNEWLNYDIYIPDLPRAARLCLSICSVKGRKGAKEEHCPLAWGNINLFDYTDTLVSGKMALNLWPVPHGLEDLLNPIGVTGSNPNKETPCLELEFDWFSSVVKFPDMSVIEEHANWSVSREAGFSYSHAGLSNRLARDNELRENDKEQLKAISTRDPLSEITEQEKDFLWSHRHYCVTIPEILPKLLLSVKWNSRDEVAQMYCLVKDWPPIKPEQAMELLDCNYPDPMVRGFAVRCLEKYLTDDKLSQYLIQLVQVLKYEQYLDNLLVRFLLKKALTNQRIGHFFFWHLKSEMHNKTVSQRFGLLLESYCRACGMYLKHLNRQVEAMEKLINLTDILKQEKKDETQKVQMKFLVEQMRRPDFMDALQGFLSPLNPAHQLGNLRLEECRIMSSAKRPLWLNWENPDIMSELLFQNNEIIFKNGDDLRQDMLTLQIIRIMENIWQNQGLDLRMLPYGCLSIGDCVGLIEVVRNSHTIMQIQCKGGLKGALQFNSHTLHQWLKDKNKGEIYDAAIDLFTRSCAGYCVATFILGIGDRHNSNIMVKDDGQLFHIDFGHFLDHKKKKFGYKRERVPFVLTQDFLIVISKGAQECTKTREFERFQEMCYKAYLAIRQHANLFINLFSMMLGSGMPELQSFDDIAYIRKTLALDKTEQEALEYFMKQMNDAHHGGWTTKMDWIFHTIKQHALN
Method: as §6, §7

PIK3Cγ_h = target: T5, PIK3Cγ_h (Homo sapiens, UniProt P48736); test: Enzyme binding assay (KINOMEscan); details: DiscoveRx
T5 construct: purchased DiscoveRx Corporation, San Diego (KINOMEscan service)
T5 sequence (P48736 whole entry): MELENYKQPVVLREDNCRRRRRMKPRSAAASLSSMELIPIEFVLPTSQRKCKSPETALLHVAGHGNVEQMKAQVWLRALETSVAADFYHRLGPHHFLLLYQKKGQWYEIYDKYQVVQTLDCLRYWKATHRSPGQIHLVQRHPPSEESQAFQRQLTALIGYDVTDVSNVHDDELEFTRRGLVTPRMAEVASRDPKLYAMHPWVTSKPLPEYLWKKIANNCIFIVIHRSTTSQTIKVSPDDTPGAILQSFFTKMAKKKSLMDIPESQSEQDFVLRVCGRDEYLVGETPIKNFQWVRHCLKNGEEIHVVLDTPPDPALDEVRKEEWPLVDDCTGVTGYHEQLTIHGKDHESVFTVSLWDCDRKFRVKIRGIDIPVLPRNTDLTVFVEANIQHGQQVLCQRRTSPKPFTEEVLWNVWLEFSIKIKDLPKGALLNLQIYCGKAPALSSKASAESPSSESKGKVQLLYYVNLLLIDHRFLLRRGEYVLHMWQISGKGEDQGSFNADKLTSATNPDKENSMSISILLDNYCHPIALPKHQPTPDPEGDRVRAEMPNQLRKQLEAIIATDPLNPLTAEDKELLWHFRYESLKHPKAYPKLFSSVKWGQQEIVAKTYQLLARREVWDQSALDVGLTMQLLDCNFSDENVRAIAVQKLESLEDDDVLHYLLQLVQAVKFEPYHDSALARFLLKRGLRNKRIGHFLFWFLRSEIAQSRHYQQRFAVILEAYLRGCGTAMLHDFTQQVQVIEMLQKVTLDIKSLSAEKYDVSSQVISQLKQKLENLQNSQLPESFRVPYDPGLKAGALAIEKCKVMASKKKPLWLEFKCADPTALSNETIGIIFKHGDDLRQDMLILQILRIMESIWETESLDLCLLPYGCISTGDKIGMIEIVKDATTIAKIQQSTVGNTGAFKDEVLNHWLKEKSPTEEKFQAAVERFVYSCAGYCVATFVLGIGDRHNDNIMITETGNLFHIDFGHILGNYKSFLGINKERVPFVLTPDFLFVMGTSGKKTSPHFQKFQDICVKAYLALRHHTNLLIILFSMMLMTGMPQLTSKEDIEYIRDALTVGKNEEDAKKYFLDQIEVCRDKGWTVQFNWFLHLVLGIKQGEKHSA
Method: as §6, §7

Row | Structure (SMILES) | melting point [°C] | IC50 [1] [nM] | IC50 [2] [nM] | Kd (PIK3Cβ_h) [nM] | Kd (PIK3Cδ_h) [nM] | Kd (MTOR_h) [nM] | Kd (PIK3Cα_h) [nM] | Kd (PIK3Cγ_h) [nM]
1 | Cc1c(Cc2c(CC(=O)N3CC(C)NC(C)C3)nc3c(N)cc(N4CCOCC4)nn23)cccc1C(F)(F)F (centres unmarked) [Compound 22] | 110 | ~26 | 45 | 0.5 | 56 | 10700 | 2240 | 8910
2 | Cc1c(F)cccc1Cc1c(CN2CCS(=O)(=O)CC2)nc2c(N)cc(N3CCOCC3)nn12 [Compound 43] | 130 | 17 | 10 | 0.4 | 62 | 1380 | 2040 | > 30200
3 | Cc1c(Cc2c(CN3CCC(S(C)(=O)=O)C3)nc3c(N)cc(N4CCOCC4)nn23)cccc1C(F)(F)F (centres unmarked) [Compound 6] | 159 | ~13 | 40 | 2.4 | 263 | 21900 | 7080 | > 30200
4 | Cc1c(Cc2c(CN3CCC(S(C)(=O)=O)CC3)nc3c(N)cc(N4CCOCC4)nn23)cccc1C(F)(F)F [Compound 4] | 188 | ~33 | 18 | 2.3 | 166 | > 30200 | 3980 | > 30200
5 | Cc1c(Cc2c(CN3CC4(C3)CS(=O)(=O)C4)nc3c(-c4ncc[nH]4)cc(N4CCOCC4)nn23)cccc1C(F)(F)F [Compound 20] | 150 | ~20 | ~34 | 1.3 | 32 | 9330 | 275 | 1550
6 | Cc1c(Cc2c(CN3CCC(CO)CC3)nc3c(N)cc(N4CCOCC4)nn23)cccc1C(F)(F)F [Compound 9] | 215 | ~39 | 76 | 0.6 | 65 | > 30200 | 14500 | > 30200
7 | Cc1c(Cc2c(CN3CCS(=O)(=O)CC3)nc3c(N)cc(N4CCOCC4)nn23)cccc1C(F)(F)F [Compound 11] | 214 | 7 | 10 | 0.7 | 81 | 11700 | 1860 | > 30200
8 | Cc1c(Cc2c(CN3CC(S(C)(=O)=O)C3)nc3c(N)cc(N4CCOCC4)nn23)cccc1C(F)(F)F [Compound 8] | 210 | ~20 | 25 | 1.6 | 195 | 15500 | 11500 | 30900
9 | Cc1c(Cc2c(CN3CC4(C3)CS(=O)(=O)C4)nc3c(C(N)=O)cc(N4CCOCC4)nn23)cccc1C(F)(F)F [Compound 26] | 216 | ~62 | 275 | 3 | 372 | > 30200 | 692 | 10700
10 | Cc1c(Cc2c(CN3CC4(C3)CS(=O)(=O)C4)nc3c(-c4cnc[nH]4)cc(N4CCOCC4)nn23)cccc1C(F)(F)F [Compound 1] | 217 | ~4 | 9 | 1.2 | 12 | 3160 | 162 | 933
11 | Cc1c(Cc2c(CC(=O)N3CCS(=O)(=O)CC3)nc3c(N)cc(N4CCOCC4)nn23)cccc1C(F)(F)F [Compound 23] | 226 | ~68 | ~79 | 1.5 | 240 | > 30200 | 2240 | > 30200
12 | CCc1c(F)cccc1Cc1c(CN2CCS(=O)(=O)CC2)nc2c(N)cc(N3CCOCC3)nn12 [Compound 45] | 240 | > 513 | > 513 | 1.1 | 178 | 2000 | 2400 | > 30200
13 | Cc1c(Cc2c(CN3CCC(CS(C)(=O)=O)CC3)nc3c(N)cc(N4CCOCC4)nn23)cccc1C(F)(F)F [Compound 5] | – | 71 | ~132 | 3.6 | 219 | > 30200 | 12000 | > 30200
14 | Cc1c(Cc2c(CN3CC(C)NC(C)C3)nc3c(N)cc(N4CCOCC4)nn23)cccc1C(F)(F)F (centres unmarked) [Compound 10] | – | ~48 | ~42 | 0.6 | 52 | 5750 | 4790 | > 30200
15 | Cc1c(Cc2c(CN3CCCC4(CNC4)C3)nc3c(N)cc(N4CCOCC4)nn23)cccc1C(F)(F)F [Compound 12] | – | ~87 | 85 | 1.7 | 89 | 11000 | 18600 | 8510
16 | Cc1c(Cc2c(CN3CCCC(CO)C3)nc3c(-c4cnc[nH]4)cc(N4CCOCC4)nn23)cccc1C(F)(F)F (centres unmarked) [Compound 15] | – | ~41 | 30 | 1.4 | 22 | 7760 | 537 | 2190
17 | Cc1c(Cc2c(CN3CC4(CC(O)C4)C3)nc3c(-c4cnc[nH]4)cc(N4CCOCC4)nn23)cccc1C(F)(F)F [Compound 27] | – | 43 | 62 | 0.4 | 10 | 1550 | 240 | 589
18 | Cc1c(Cc2c(CN3CC(C)NC(C)C3)nc3c(-c4cnc[nH]4)cc(N4CCOCC4)nn23)cccc1C(F)(F)F (centres unmarked) [Compound 16] | – | 28 | 38 | 0.7 | 17 | 2000 | 453 | 5700
19 | Cc1c(Cc2c(CN3CC4(CCCNC4)C3)nc3c(N)cc(N4CCOCC4)nn23)cccc1C(F)(F)F [Compound 13] | – | 44 | 28 | 0.2 | 7 | 3550 | 1380 | 977
20 | Cc1c(Cc2c(CNC(=O)[C@@H]3C[C@@H](O)CN3C)nc3c(N)cc(N4CCOCC4)nn23)cccc1C(F)(F)F [Compound 41] | – | 18 | 60 | 0.4 | 48 | 6760 | 5370 | 21400

Reference: patent publication US10202387B2, “Heterocyclyl linked imidazopyridazine derivatives as PI3KB inhibitors” (Janssen Pharmaceutica NV, priority 2014, dated 2019)
